Test results as given in patent US10947254B2, “Methods for treating ulcerative colitis using 3-((1R,3s,5S)-3-((7-((5-methyl-1H-pyrazol-3-yl)amino)-1,6-naphthyridin-5-yl)amino)-8-azabicyclo[3.2.1]octan-8-yl)propanenitrile” (priority 2015, dated 2021).

Tested on: IL-4 induced STAT6 phosphorylation in THP-1 human monocytic cells
Details: THP-1 cells

Row | Structure (SMILES) | THP-1 IL4 pIC50
1 | COC(=O)CN1[C@@H]2CC[C@H]1C[C@H](Nc1nc(Nc3cc(C)[nH]n3)cc3ncccc13)C2 [Example 1-1] | C (C represents a pEC50 value <6.7 (EC50>200 nM))
2 | COC(=O)CCCN1[C@@H]2CC[C@H]1C[C@H](Nc1nc(Nc3cc(C)[nH]n3)cc3ncccc13)C2 [Example 1-3] | C (C represents a pEC50 value <6.7 (EC50>200 nM))
3 | Cc1cc(Nc2cc3ncccc3c(N[C@@H]3C[C@H]4CC[C@@H](C3)N4CC(N)=O)n2)n[nH]1 [Example 1-6] | C (C represents a pEC50 value <6.7 (EC50>200 nM))
4 | CNC(=O)CN1[C@@H]2CC[C@H]1C[C@H](Nc1nc(Nc3cc(C)[nH]n3)cc3ncccc13)C2 [Example 1-7] | C (C represents a pEC50 value <6.7 (EC50>200 nM))
5 | Cc1cc(Nc2cc3ncccc3c(N[C@@H]3C[C@H]4CC[C@@H](C3)N4CC(=O)N(C)C)n2)n[nH]1 [Example 1-8] | C (C represents a pEC50 value <6.7 (EC50>200 nM))
6 | Cc1cc(Nc2cc3ncccc3c(N[C@@H]3C[C@H]4CC[C@@H](C3)N4CCCF)n2)n[nH]1 [Example 1-9] | C (C represents a pEC50 value <6.7 (EC50>200 nM))
7 | Cc1cc(Nc2cc3ncccc3c(N[C@@H]3C[C@H]4CC[C@@H](C3)N4CCC(F)(F)F)n2)n[nH]1 [Example 1-10] | C (C represents a pEC50 value <6.7 (EC50>200 nM))
8 | Cc1cc(Nc2cc3ncccc3c(N[C@@H]3C[C@H]4CC[C@@H](C3)N4CC(=O)N[C@@H]3CCOC3=O)n2)n[nH]1 [Example 1-11] | C (C represents a pEC50 value <6.7 (EC50>200 nM))
9 | Cc1cc(Nc2cc3ncccc3c(N[C@@H]3C[C@H]4CC[C@@H](C3)N4CC(=O)N[C@H]3CCOC3=O)n2)n[nH]1 [Example 1-12] | C (C represents a pEC50 value <6.7 (EC50>200 nM))
10 | Cc1cc(Nc2cc3ncccc3c(N[C@@H]3C[C@H]4CC[C@@H](C3)N4CC(C)C)n2)n[nH]1 [Example 1-13] | A (A represents a pEC50 value ≥7.5 (EC50≤32 nM))
11 | COCCCN1[C@@H]2CC[C@H]1C[C@H](Nc1nc(Nc3cc(C)[nH]n3)cc3ncccc13)C2 [Example 1-15] | C (C represents a pEC50 value <6.7 (EC50>200 nM))
12 | Cc1cc(Nc2cc3ncccc3c(N[C@@H]3C[C@H]4CC[C@@H](C3)N4C(C)CC#N)n2)n[nH]1 (stereo partly drawn) [Example 1-21] | A (A represents a pEC50 value ≥7.5 (EC50≤32 nM))
13 | Cc1cc(Nc2cc3ncccc3c(N[C@@H]3C[C@H]4CC[C@@H](C3)N4C[C@H]3CCC(=O)O3)n2)n[nH]1 [Example 1-29] | C (C represents a pEC50 value <6.7 (EC50>200 nM))
14 | COC(=O)CN1[C@@H]2CCC[C@H]1C[C@H](Nc1nc(Nc3cc(C)[nH]n3)cc3ncccc13)C2 [Example 1-32] | C (C represents a pEC50 value <6.7 (EC50>200 nM))
15 | COC(=O)CCN1[C@@H]2CCC[C@H]1C[C@H](Nc1nc(Nc3cc(C)[nH]n3)cc3ncccc13)C2 [Example 1-33] | C (C represents a pEC50 value <6.7 (EC50>200 nM))
16 | COC(=O)CCCN1[C@@H]2CCC[C@H]1C[C@H](Nc1nc(Nc3cc(C)[nH]n3)cc3ncccc13)C2 [Example 1-34] | C (C represents a pEC50 value <6.7 (EC50>200 nM))
17 | Cc1cc(Nc2cc3ncccc3c(N[C@@H]3C[C@H]4CCC[C@@H](C3)N4CC(=O)OC(C)C)n2)n[nH]1 [Example 1-35] | A (A represents a pEC50 value ≥7.5 (EC50≤32 nM))
18 | Cc1cc(Nc2cc3ncccc3c(N[C@@H]3C[C@H]4CCC[C@@H](C3)N4CC(=O)N[C@@H]3CCOC3=O)n2)n[nH]1 [Example 1-41] | C (C represents a pEC50 value <6.7 (EC50>200 nM))
19 | Cc1cc(Nc2cc3ncccc3c(N[C@@H]3C[C@H]4CCC[C@@H](C3)N4CC(=O)N[C@H]3CCOC3=O)n2)n[nH]1 [Example 1-42] | C (C represents a pEC50 value <6.7 (EC50>200 nM))
20 | Cc1cc(Nc2cc3ncccc3c(N[C@@H]3C[C@H]4CCC[C@@H](C3)N4Cc3cccc(O)c3)n2)n[nH]1 [Example 1-49] | A (A represents a pEC50 value ≥7.5 (EC50≤32 nM))
21 | CCOCC(=O)N1[C@@H]2CC[C@H]1C[C@H](Nc1nc(Nc3cc(C)[nH]n3)cc3ncccc13)C2 [Example 2-4] | C (C represents a pEC50 value <6.7 (EC50>200 nM))
22 | Cc1cc(Nc2cc3ncccc3c(N[C@@H]3C[C@H]4CC[C@@H](C3)N4C(=O)CN(C)C)n2)n[nH]1 [Example 2-5] | C (C represents a pEC50 value <6.7 (EC50>200 nM))
23 | CCC(=O)N1[C@@H]2CCC[C@H]1C[C@H](Nc1nc(Nc3cc(C)[nH]n3)cc3ncccc13)C2 [Example 2-15] | A (A represents a pEC50 value ≥7.5 (EC50≤32 nM))
24 | CCC(C)C(=O)N1C2CCCC1CC(Nc1nc(Nc3cc(C)[nH]n3)cc3ncccc13)C2 (stereo not drawn) [Example 2-18] | A (A represents a pEC50 value ≥7.5 (EC50≤32 nM))

Row | Structure (SMILES) | THP-1 IL4 pIC50
25 | Cc1cc(Nc2cc3ncccc3c(N[C@@H]3C[C@H]4CC[C@@H](C3)N4C(=O)OCC(C)C)n2)n[nH]1 [Example 3-3] | A (A represents a pEC50 value ≥7.5 (EC50≤32 nM))
26 | C=CCOC(=O)N1[C@@H]2CC[C@H]1C[C@H](Nc1nc(Nc3cc(C)[nH]n3)cc3ncccc13)C2 [Example 3-4] | A (A represents a pEC50 value ≥7.5 (EC50≤32 nM))
27 | CCOC(=O)N1[C@@H]2CCC[C@H]1C[C@H](Nc1nc(Nc3cc(C)[nH]n3)cc3ncccc13)C2 [Example 3-6] | A (A represents a pEC50 value ≥7.5 (EC50≤32 nM))
28 | C=CCOC(=O)N1[C@@H]2CCC[C@H]1C[C@H](Nc1nc(Nc3cc(C)[nH]n3)cc3ncccc13)C2 [Example 3-8] | A (A represents a pEC50 value ≥7.5 (EC50≤32 nM))
29 | COCCOC(=O)N1[C@@H]2CCC[C@H]1C[C@H](Nc1nc(Nc3cc(C)[nH]n3)cc3ncccc13)C2 [Example 3-9] | A (A represents a pEC50 value ≥7.5 (EC50≤32 nM))
30 | Cc1cc(Nc2cc3ncccc3c(N[C@@H]3C[C@H]4CCC[C@@H](C3)N4S(C)(=O)=O)n2)n[nH]1 [Example 4-16] | A (A represents a pEC50 value ≥7.5 (EC50≤32 nM))
31 | Cc1cc(Nc2cc3ncccc3c(N[C@@H]3C[C@H]4CCC[C@@H](C3)N4S(=O)(=O)CC(C)C)n2)n[nH]1 [Example 4-17] | A (A represents a pEC50 value ≥7.5 (EC50≤32 nM))
32 | Cc1cc(Nc2cc3ncccc3c(N[C@@H]3C[C@H]4CCC[C@@H](C3)N4S(=O)(=O)C3CNC3)n2)n[nH]1 [Example 4-21] | C (C represents a pEC50 value <6.7 (EC50>200 nM))
33 | C=CCS(=O)(=O)N1[C@@H]2CCC[C@H]1C[C@H](Nc1nc(Nc3cc(C)[nH]n3)cc3ncccc13)C2 [Example 4-22] | A (A represents a pEC50 value ≥7.5 (EC50≤32 nM))
34 | Cc1ccc(S(=O)(=O)N2[C@@H]3CCC[C@H]2C[C@H](Nc2nc(Nc4cc(C)[nH]n4)cc4ncccc24)C3)cn1 [Example 4-25] | A (A represents a pEC50 value ≥7.5 (EC50≤32 nM))
35 | CCS(=O)(=O)N1[C@@H]2CCC[C@H]1C[C@H](Nc1nc(Nc3cc(C)[nH]n3)cc3nc(CN4CCOCC4)ccc13)C2 [Example 5-23] | A (A represents a pEC50 value ≥7.5 (EC50≤32 nM))
36 | Cc1cc(Nc2cc3nc(CN4CCOCC4)ccc3c(N[C@@H]3C[C@H]4CCC[C@@H](C3)N4CCC#N)n2)n[nH]1 [Example 5-26] | A (A represents a pEC50 value ≥7.5 (EC50≤32 nM))
37 | Cc1cc(Nc2cc3nc(CN4CCOCC4)ccc3c(N[C@H]3C[C@H]4CCC[C@@H](C3)N4CC(F)(F)F)n2)n[nH]1 [Example 5-29] | B (B represents a pEC50 value between 6.7 and 7.5 (EC50 between 200 nM and 32 nM))
38 | Cc1cc(Nc2cc3nc(CS(C)(=O)=O)ccc3c(N[C@@H]3C[C@H]4CC[C@@H](C3)N4CCF)n2)n[nH]1 [Example 5-41] | C (C represents a pEC50 value <6.7 (EC50>200 nM))
39 | Cc1cc(Nc2cc3nc(CS(C)(=O)=O)ccc3c(N[C@@H]3C[C@H]4CC[C@@H](C3)N4CCCF)n2)n[nH]1 [Example 5-42] | C (C represents a pEC50 value <6.7 (EC50>200 nM))
40 | Cc1cnc2cc(Nc3cc(C)[nH]n3)nc(N[C@@H]3C[C@H]4CC[C@@H](C3)N4Cc3ccncc3)c2c1 [Example 6-2] | A (A represents a pEC50 value ≥7.5 (EC50≤32 nM))
41 | COc1cnc2cc(Nc3cc(C)[nH]n3)nc(N[C@@H]3C[C@H]4CC[C@@H](C3)N4CCC#N)c2c1 [Example 6-11] | A (A represents a pEC50 value ≥7.5 (EC50≤32 nM))
42 | COc1cnc2cc(Nc3cc(C)[nH]n3)nc(N[C@@H]3C[C@H]4CCC[C@@H](C3)N4C(=O)CN(C)C)c2c1 [Example 6-30] | C (C represents a pEC50 value <6.7 (EC50>200 nM))
43 | COC(=O)c1cnc2cc(Nc3cc(C)[nH]n3)nc(N[C@@H]3C[C@H]4CC[C@@H](C3)N4CCC#N)c2c1 [Example 6-32] | A (A represents a pEC50 value ≥7.5 (EC50≤32 nM))
44 | COC(=O)c1cnc2cc(Nc3cc(C)[nH]n3)nc(N[C@@H]3C[C@H]4CC[C@@H](C3)N4C(=O)CN(C)C)c2c1 [Example 6-39] | C (C represents a pEC50 value <6.7 (EC50>200 nM))
45 | C=CCOC(=O)N1[C@@H]2CC[C@H]1C[C@H](Nc1nc(Nc3cc(C)[nH]n3)cc3ncc(C(=O)OC)cc13)C2 [Example 6-40] | A (A represents a pEC50 value ≥7.5 (EC50≤32 nM))
46 | COC(=O)c1cnc2cc(Nc3cc(C)[nH]n3)nc(N[C@@H]3C[C@H]4CC[C@@H](C3)N4CC(=O)OC(C)C)c2c1 [Example 6-41] | A (A represents a pEC50 value ≥7.5 (EC50≤32 nM))
47 | CNC(=O)CN1[C@@H]2CC[C@H]1C[C@H](Nc1nc(Nc3cc(C)[nH]n3)cc3ncc(C(=O)OC)cc13)C2 [Example 6-42] | C (C represents a pEC50 value <6.7 (EC50>200 nM))
48 | COC(=O)c1cnc2cc(Nc3cc(C)[nH]n3)nc(N[C@@H]3C[C@H]4CC[C@@H](C3)N4C[C@H]3CCC(=O)O3)c2c1 [Example 6-46] | C (C represents a pEC50 value <6.7 (EC50>200 nM))
